According to patent US12560591B2, “Methods of treatment with CD8 T cell-mediated immune therapy” (Providence Health & Services—Oregon, priority 2019, dated 2026):

Legend:
[1] = tested on: CT26 tumors; assay: CT26 tumor model: ALK5 inhibitor with chemoradiation (RT+5FU), tumor growth and survival; assay type: in vivo, mouse; conditions: FIG. 6B
Description: FIGS. 1A-1D are a series of panels showing that the TGFβR1 antagonist LY2157299 enhances chemo-radiation efficacy dependent on CD8α^+ cells in CT26 tumors. FIG. 1A is a treatment schema in the CT26 tumor model. Six to eight week old BALB/c mice were implanted subcutaneously in the left flank with 2×10^5 CT26 tumor cells. Seven days following implant, animals were randomized based on tumor size, and vehicle control or LY2157299 compound were administered by oral gavage twice daily every 12 hours at 150 mg/kg for 7 consecutive days. At day 14, some mice received five consecutive radiation treatments of 5 Gy targeted to tumor tissue along with 25 mg/kg injections of 5-fluorouracil (5FU) chemotherapy administered intraperitoneally on days 14, 16, and 18. LY treatment groups resumed BID oral dosing from days 21-27. Mean tumor growth (i) and survival (ii) were assessed three times per week up to 100 days or death (FIG. 1B). […] Arrows identify pSMAD2^+CD8^+ cells in vehicle mice. […] NS=not significant, *=p<0.05, **=p<0.01, ***=p<0.001.
(§1) FIGS. 6A-6D are a series of panels showing generation of tumor-specific immune memory following tumor eradication with TGFβ inhibition with chemoradiation. […] The number of mice cured over the total number of mice in each group is indicated in the top right corner. One representative experiment is shown reflective of two independent experiments. Mice who eradicated their tumors were rechallenged with CT26 and 4T1 tumors. CT26 tumor cells were rechallenged on the opposite flank as from the original cured tumor. In FIG. 6D, 4T1 and CT26 tumor establishment and growth was followed for up to 60 days post re-challenge. The number of tumors rejected per total mice rechallenged in each tumor type is indicated in the top right portion of the graph. ***=p<0.001
Animal studies and cell culture: C57BL/6, BALB/c, CD8Cre, Lyz2Cre, and Foxp3-eGFP-CreERT2 mice were purchased from the Jackson Laboratories (Bar Harbor, Maine). ALK5flox/flox mice were a generous gift from Andrew Weinberg (Providence Cancer Center). All transgenic mice were on C57BL/6 background. CT26, MC38, 4T1 and MCA205-OVA tumor cells were grown in DMEM medium supplemented with 10% heat-inactivated fetal bovine serum and 1% penicillin-streptomycin to 60-90% confluence prior to tumor implantation. All cells were washed 2× with 1×PBS and implanted subcutaneously in a 100 μl volume of 1×PBS in the lower flanks. 1×10^5 MC38 cells, 2×10^5 CT26 cells, 5×10^4 4 T1 cells, and 5×10^6 MCA205-OVA cells were used for tumor induction. Tumors were measured 3×/week until they reached the survival end-point of 144 mm^2. […] Following single cell preparation, cells were washed and resuspended in FACS buffer (1×PBS, 1% BSA, 2 mM EDTA) and counted prior to FACS staining using a Guava EasyCyte cytometer (Millipore). […]

[2] = tested on: CT26 cells; assay: Rechallenge of cured mice with CT26 cells; assay type: in vivo, mouse; conditions: cured animals (RT/5-FU/LY3200882), rechallenge at day 73 post-implant, FIG. 6C-D
From the text: as §1
(§2) In order to evaluate whether the improved efficacy of RT+5FU+LY (FIG. 1B) was due to the direct effect of ALK5 inhibition on CD8^+ T cells, LY treatment in ALK5^ΔCD8 mice was tested.

[3] = tested on: 4T1 cell line; assay: Rechallenge of cured mice with 4T1 cells; assay type: in vivo, mouse; conditions: cured animals (RT/5-FU/LY3200882), 4T1 implanted simultaneously on opposite flank, FIG. 6C-D
From the text: as §1, §2

[4] = tested on: peripheral blood CD3^+CD4^−CXCR3^+ T cells; assay: HNSCC patients, neoadjuvant anti-PD-1: peripheral blood CXCR3+ T cells; assay type: in vivo, human; conditions: one week after first dose of nivolumab 240 mg IV, FIG. 13B
Description: FIGS. 13A-13D are a series of panels showing change in CXCR3^+ cells in response to checkpoint blockade. […] Peripheral blood was drawn at baseline and one week after anti-PD-1 therapy (nivolumab). Surgery was performed at week six for pathologic assessment. […] Patients are grouped by nodal status following neoadjuvant treatment (ypN). FIGS. 13C and 13D show HPV+ patients from FIG. 13B and HPV-patients from FIG. 13B, respectively. Given the low number of patient(s) with residual nodal disease (ypN+), statistics could not be accurately performed in the HPV+ and HPV− subgroups.
Patients with locoregionally advanced HNSCC were treated with anti-PD-1 (nivolumab, 240 mg, IV) three times Q2W. Radiation was administered following the first anti-PD-1 treatment, and surgery was performed at week 6 to assess pathologic status. Patients also received stereotactic body radiation therapy (SBRT) following the first dose of nivolumab. Peripheral blood was drawn at baseline and one week after administration of the first dose of nivolumab. […] As HPV+ and HPV-HNSCC have marked differences in natural history and/or behavior, these cohorts were also analyzed separately (FIGS. 13C and 13D). When comparing response to neoadjuvant therapy in the HPV+ and HPV− cohorts separately, the change in percent CXCR3^+CD3^+CD4^− T cells was more distinct.

Molecule | tumor cures (animals cured of total) ([1]; CT26, LY3200882 with chemoradiation (RT/5-FU)) | median survival ([1]; CT26, LY3200882 with chemoradiation, p<0.001 vs RT+5FU) | tumor rechallenge outcome [2] | tumor rechallenge outcome [3] | change in peripheral blood CD3^+CD4^−CXCR3^+ T cells vs nodal status [4]
CC(C)(O)c1cc(Nc2cc(Oc3cn(C4CC4)nc3C3CCOCC3)ccn2)ccn1 [LY3200882] | 6 of 7 | not reached | rejected tumor rechallenge | but not the immunologically distinct 4T1 cell line | –
nivolumab: anti-PD-1 antibody | – | – | – | – | decrease in CD3^+CD4^−CXCR3^+ T cells following neoadjuvant nivolumab correlated with clearance of nodal disease
